# Measured values reported in patent US20150182675A1, “Ascorbic Acid-Eluting Implantable Medical Devices, Systems, and Related Methods” (South Dakota Board of Regents, priority 2012, published 2015).
# Key:
# Format in all cases: cell-based
# smooth muscle cells [1] = experiment: Resazurin fluorometric assay of smooth muscle cell cultures (Example Eight); details: for number of smooth muscle cells in comparison to the control: day 1; for smooth muscle cell growth vs control: day 3
# Protocol: (§1) In Example 8, a quantitative resazurin fluorometric assay was used. A solution of alamarBlue® from a kit purchased from Biotium Inc. (in Hayward, Calif.) was added to the smooth muscle cell cultures which were already treated with ascorbic acid, sirolimus, or paclitaxel. A control lacking any therapeutic agent was also included. After respective time points (1, 3, 5, and 7 days), the fluorescence of the solution was measured using a microplate reader. The collected data is provided as relative fluorescence units (RFU) vs. time for all the three groups (ascorbic acid, sirolimus, and paclitaxel) of samples.
# smooth muscle cells [2] = experiment: Phase contrast microscopy of smooth muscle cell morphology (Example Ten); details: day 7, phase contrast
# From the text: Example 10 provides a further qualitative characterization of the Example Eight results using phase contrast microscopy. That is, the effects of L-AA, SIR, and PAT on the growth of smooth muscle cells was investigated by taking phase contrast images of cells after 7 days using an Axiovert 200 M inverted microscopy (Carl Zeiss) in the bright field imaging mode and examining the cell morphology.
# endothelial cells [3] = experiment: Phase contrast microscopy of endothelial cell morphology (Example Six); details: 100 μg added, day 7, phase contrast
# Protocol: In Example 6, 100 μg of L-ascorbic acid, 100 μg of sirolimus, and 100 μg paclitaxel were added to separate endothelial cell cultures. A control cell culture was also provided in which no agent was added. The effects of L-AA, SIR, and PAT on the growth of endothelial cells was investigated by taking phase contrast images of cells after 7 days using an Axiovert 200 M inverted microscopy (Carl Zeiss) in the bright field imaging mode and examining the cell morphology.
# smooth muscle cells [4] = experiment: FDA staining and fluorescence microscopy of smooth muscle cells (Example Nine); details: for smooth muscle cell growth from one time point to the other: FDA staining, days 1 to 7; for confluence of smooth muscle cells: after 7 days
# From the text: (§2) Example 9 provides a qualitative characterization of the Example Eight results using flurorescence microscopy. More specifically, the growth of smooth muscle cells in the presence of three different treatments (ascorbic acid, paclitaxel, and sirolimus) was investigated by staining the live cells with fluorescein diacetate (FDA). The FDA-stained live cells were then imaged using flurorescence microscopy on day 1, day 3, day 5, and day 7 of culture. On each day, a determination of growth (viability and proliferation) of smooth muscle cells was made.
# endothelial cells [5] = experiment: FDA staining and fluorescence microscopy of endothelial cell cultures (Example One); details: for endothelial cell adhesion: 100 μg added, 15,000 cells per well, day 1; for spreading of endothelial cells: day 5
# Protocol: In Example 1, […] of L-ascorbic acid, 100 μg of sirolimus, and 100 μg paclitaxel were added to separate endothelial cell cultures (15,000 cells per well). A control cell culture was also provided in which no agent was added. The endothelial cell adhesion in the culture well was investigated by staining the live cells with fluorescein diacetate (FDA). The FDA-stained live cells were then imaged using fluorescence microscopy on day one, day 3, day five, and day seven of culture. After five days, a determination of the spreading of endothelial cells was made. After seven days, a determination of growth (viability and proliferation) of endothelial cells was made.
# endothelial cells [6] = experiment: Resazurin fluorometric assay of endothelial cells, different doses of ascorbic acid (Example Seven)
# Protocol: (§3) In Example 7, a quantitative resazurin fluorometric assay was used. A solution of alamarBlue® from a kit purchased from Biotium Inc. (in Hayward, Calif.) was added to the endothelial cell cultures which were already treated with different doses of ascorbic acid. More specifically, the different doses of ascorbic acid included 1 μg/mL, 100 μg/mL, 300 μg/mL, 500 μg/mL, and 1000 μg/mL. A control lacking any ascorbic acid was also included. After respective time points (1, 3, 5, and 7 days), the fluorescence of the solution was measured using a microplate reader. The collected data is provided as relative fluorescence units (RFU) vs. time for all the six groups (control, 1 μg/mL, 100 μg/mL, 300 μg/mL, 500 μg/mL, and 1000 μg/mL) of samples.
# smooth muscle cells [7] = experiment: FDA staining and fluorescence microscopy of smooth muscle cells, different doses of ascorbic acid (Example Twelve); details: for confluence of smooth muscle cells: after 7 days
# From the text: as §2, with “12” for “9”, “Eleven” for “Eight”, “fluorescence” for “flurorescence”, “five” for “three”, “doses of ascorbic acid” for “treatments (ascorbic acid, paclitaxel, and sirolimus)”
# endothelial cells [8] = experiment: Resazurin fluorometric assay (Alamar Blue) of endothelial cell cultures (Example Two); details: RFU, FIG. 5
# Protocol: as §1, with “order to provide” for “Example 8,”, “quantitative characterization of the Example One results, a” for “quantitative”, “assay (Alamar Blue)” for “assay”, “Alamar Blue” for “alamarBlue® from a kit purchased from Biotium Inc. (in Hayward, Calif.)”, “endothelial” for “smooth muscle”, “was” for “was also”
# smooth muscle cells [9] = experiment: Resazurin fluorometric assay of smooth muscle cells, different doses of ascorbic acid (Example Eleven)
# Protocol: as §3, with “11,” for “7,”, “smooth muscle” for “the endothelial”
# [10] = days 1 to 7, doses 1 to 1000 μg
compound,measurement,setting,value
CC(=O)O[C@H]1C(=O)[C@@]2(C)[C@H]([C@H](OC(=O)c3ccccc3)[C@]3(O)C[C@H](OC(=O)[C@H](O)[C@@H](NC(=O)c4ccccc4)c4ccccc4)C(C)=C1C3(C)C)[C@]1(OC(C)=O)CO[C@@H]1C[C@@H]2O [paclitaxel],number of smooth muscle cells in comparison to the control,smooth muscle cells [1],significantly lesser number of cells
same,smooth muscle cell growth vs control,smooth muscle cells [1],significantly inhibited the cell growth
same,number of smooth muscle cells vs ascorbic acid treatment,smooth muscle cells [1]; day 5 (similar on day 7),lesser numbers of cells than that of the ascorbic acid treatment
same,order of SMC viability and proliferation (decreasing),smooth muscle cells [1]; days 1 to 7,Control>>ascorbic acid>sirolimus=paclitaxel
same,smooth muscle cell morphology and spreading,smooth muscle cells [2],not spreading and only very few cells were spindle-shaped
same,endothelial cell morphology,endothelial cells [3],uncharacteristic oval or round shape with no spreading morphology
same,smooth muscle cell growth from one time point to the other,smooth muscle cells [4],significantly inhibited
same,confluence of smooth muscle cells,smooth muscle cells [4],about 20%
same,endothelial cell adhesion,endothelial cells [5],poor
same,spreading of endothelial cells,endothelial cells [5]; 100 μg added,poor
same,growth (viability and proliferation) of endothelial cells,"endothelial cells [5]; 100 μg added, day 7",poor
"O=C1O[C@H]([C@@H](O)CO)C(O)=C1O [ascorbic acid, L-ascorbic acid]",number of endothelial cells vs control,"endothelial cells [6]; day 1, all doses (1 to 1000 μg/mL)",no significant differences
same,number of endothelial cells vs control and other doses,"endothelial cells [6]; day 3, 100 μg dose",significantly greater
same,number of endothelial cells vs control and other doses,"endothelial cells [6]; day 5, 100 μg dose",significantly greater number of cells
same,number of endothelial cells vs control and other doses,"endothelial cells [6]; day 5, 300 μg dose",significantly greater number of cells
same,number of endothelial cells vs control and other doses,"endothelial cells [6]; day 5, 500 μg dose",significantly greater number of cells
same,number of endothelial cells among the groups,"endothelial cells [6]; day 7, 300 μg/mL dose",maximum number of cells
same,number of endothelial cells among the groups,"endothelial cells [6]; day 7, 100 dose",maximum number of cells
same,order of viability and proliferation of endothelial cells for the different doses (increasing),endothelial cells [6]; [10],1000 μg<1 μg=control=500 μg<<300 μg=100 μg
same,number of smooth muscle cells in comparison to the control,smooth muscle cells [1],significantly lesser number of cells
same,smooth muscle cell growth vs control,smooth muscle cells [1],significantly inhibited the cell growth
same,effect on growth of SMCs (overall),smooth muscle cells [1]; days 1 to 7,significantly inhibited growth of SMCs
same,order of SMC viability and proliferation (decreasing),smooth muscle cells [1]; days 1 to 7,Control>>ascorbic acid>sirolimus=paclitaxel
same,smooth muscle cell morphology and spreading,smooth muscle cells [2],"spindle-shaped, but they were less spreading when compared to the control"
same,endothelial cell morphology,endothelial cells [3],spreading morphology with characteristic polygonal shape
same,inhibitory effect on smooth muscle cells,smooth muscle cells [7]; 1 μg dose,no inhibitory effect
same,inhibitory effect on smooth muscle cells,smooth muscle cells [7]; 1000 μg dose,maximum inhibitory effect
same,confluence of smooth muscle cells,smooth muscle cells [7]; 1 μg dose,> 90%
same,confluence of smooth muscle cells,smooth muscle cells [7]; 100 μg dose,50-60%
same,confluence of smooth muscle cells,smooth muscle cells [7]; 300 μg dose,50-60%
same,confluence of smooth muscle cells,smooth muscle cells [7]; 500 μg dose,30-40%
same,confluence of smooth muscle cells,smooth muscle cells [7]; 1000 μg dose,30-40%
same,smooth muscle cell growth,"smooth muscle cells [7]; doses ranging from 100 to 1000 μg, days 1 to 7",significantly inhibited
same,smooth muscle cell growth from one time point to the other,smooth muscle cells [4],significantly inhibited
same,confluence of smooth muscle cells,smooth muscle cells [4],50-60%
same,growth of endothelial cells relative to cells treated with paclitaxel,endothelial cells [8],10 fold
same,growth of endothelial cells relative to cells treated with sirolimus,endothelial cells [8],19 fold
same,growth of endothelial cells relative to control (no drug),endothelial cells [8],1.6 fold
same,endothelial cell adhesion,endothelial cells [5],excellent
same,spreading of endothelial cells,endothelial cells [5]; 100 μg added,excellent
same,growth (viability and proliferation) of endothelial cells,"endothelial cells [5]; 100 μg added, day 7",excellent
same,growth of endothelial cells in comparison to the control,"endothelial cells [5]; 100 μg added, day 7",more growth in comparison to the control
same,number of smooth muscle cells vs control and 1 μg dose,"smooth muscle cells [9]; day 1, doses 100 to 1000 μg",significantly fewer cells
same,number of smooth muscle cells vs 100 and 300 μg doses,"smooth muscle cells [9]; day 3 (similar days 5 and 7), 500 and 1000 μg doses",fewer cells in comparison to the 100 and 300 μg doses
same,order of viability and proliferation of smooth muscle cells for the different doses (decreasing),smooth muscle cells [9]; [10],control=1 μg>>100 μg=300 μg>500 μg=1000 μg
CO[C@H]1C[C@@H]2CC[C@@H](C)[C@@](O)(O2)C(=O)C(=O)N2CCCC[C@H]2C(=O)O[C@H]([C@H](C)C[C@@H]2CC[C@@H](O)[C@H](OC)C2)CC(=O)[C@H](C)/C=C(\C)[C@@H](O)[C@@H](OC)C(=O)[C@H](C)C[C@H](C)/C=C/C=C/C=C/1C [sirolimus],confluence of smooth muscle cells,smooth muscle cells [4],about 20%
